Laboratory results: patent US8101768B2, “Cyclic amine compound and pest control agent” (Nippon Soda Co., Ltd., priority 2004, dated 2012)

Assays:
[1] = tested on: organophosphorous agent resistant two-spotted spider mites; test: Effect on Two-spotted Spider Mite (spray on kidney bean leaves); assay type: in vivo; conditions: 125 ppm, water dispersible powder of Formulation Example 1 sprayed, 17 female adults, 25° C., 65% humidity, 3 days
In short: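 Mortality of adult females counted after 3 days at 25 °C and 65% humidity, following a 125 ppm spray of wettable-powder dilution onto infested 7–10-day-old bean seedlings (17 mites per leaf). Two replicates.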

[2] = tested on: acaricide resistant citrus red mites; test: Effect on Citrus Red Mite (spray on mandarin orange leaves); assay type: in vivo; conditions: 31 ppm, emulsifiable concentrate of Formulation Example 2 sprayed, 10 female adults, 25° C., 65% humidity
Description: Effect on Citrus Red Mite
10 female adults of acaricide resistant citrus red mites were inoculated onto leaves of a mandarin orange placed on dishes, onto which each of liquid agents, diluted with water so as to adjust the respective concentration of the chemical compounds to 31 ppm according to the formulation of the emulsifiable concentrate shown in the aforementioned Formulation Example 2, was sprayed by using a rotating sparge tower. After they were left in a thermostatic chamber at 25° C. in 65% humidity for 3 days, and were then removed from the dishes, eggs laid for 3 days were investigated whether they could grow to adults or not on the eleventh day. As the results, the following chemical compounds killed 100% of the adults. 1-13, 1-15, 1-22, 1-27, 1-45, 1-54, 1-59, 1-63, 1-66, 1-69, 1-71, 1-72, 1-75, 1-80, 1-88, 1-89, 1-92, 1-93, 1-94, 1-97, 1-98, 1-100, 1-102, 1-105, 1-108, 1-133, 1-136, 1-142, 1-153, 1-181, 1-183, 1-186, 1-187, 1-188, 1-189, 1-190, 1-191,

Row | SMILES | rate of killed adults [1] | killed ... of the adults (eggs laid for 3 days investigated whether they could grow to adults on the eleventh day) [2]
1 | N#Cc1ccc(O[C@@H]2[C@@H]3CC[C@H]2CN(c2ccc(C(F)(F)F)cn2)C3)c(OCC2CC2)c1 [5-121] | 100% | 100%
2 | CCCOc1cc(C(F)(F)F)ccc1OC1CCN(c2ccc(C(F)(F)F)cn2)C(C)C1 (stereo not drawn) [1-93, 2-methyl-4-[2-propoxy-4-(trifluoromethyl)phenoxy]-1-[5-(trifluoromethyl)-2-pyridyl]piperidine] | 100% | 100%
3 | Cc1coc(-c2cc(C(F)(F)F)ccc2O[C@@H]2[C@@H]3CC[C@H]2CN(c2ccc(C(F)(F)F)cn2)C3)n1 [5-261] | 100% | 100%
4 | CC1CNC(c2cc(C(F)(F)F)ccc2O[C@@H]2[C@@H]3CC[C@H]2CN(c2ccc(C(F)(F)F)cn2)C3)O1 (stereo partly drawn) [5-260] | 100% | 100%
5 | O=S(=O)(Oc1cc(C(F)(F)F)ccc1OC1C2CCC1CN(c1ccc(C(F)(F)F)cn1)C2)C(F)(F)F (stereo not drawn) [5-234] | 100% | 100%
6 | N#Cc1ccc(N2C[C@H]3CC[C@@H](C2)[C@@H]3Oc2ccc(C(F)(F)F)cc2OCC2CC2)nc1 [5-120] | 100% | 100%
7 | COCOc1cc(C(F)(F)F)ccc1O[C@@H]1[C@@H]2CC[C@H]1CN(c1ccc(C#N)cn1)C2 [5-111] | 100% | 100%
8 | C=CCOc1cc(C(F)(F)F)ccc1OC1C2CCC1CN(c1ccc(C(F)(F)F)cn1)C2 (stereo not drawn) [5-149] | 100% | 100%
9 | CCC(OC)OCc1cc(C(F)(F)F)ccc1OC1C2CCC1CN(c1ccc(C(F)(F)F)cn1)C2 (stereo not drawn) [5-222] | 100% | 100%
10 | COC(C)OCc1cc(C(F)(F)F)ccc1OC1CCN(c2ccc(C(F)(F)F)cn2)CC1C (stereo not drawn) [1-188] | 100% | 100%
11 | COCOc1cc(C(F)(F)F)ccc1O[C@@H]1[C@@H]2CC[C@H]1CN(c1ccc(C(F)(F)F)cn1)C2 [5-110] | 100% | 100%
12 | CC(C)COc1cc(C(F)(F)F)ccc1O[C@@H]1[C@@H]2CC[C@H]1CN(c1ccc(C(F)(F)F)cn1)C2 [5-105] | 100% | 100%
13 | CCCOCc1cc(C(F)(F)F)ccc1OC1C2CCC1CN(c1ccc(C(F)(F)F)cn1)C2 (stereo not drawn) [5-217] | 100% | 100%
14 | CCCOc1cc(C(F)(F)F)ccc1OC1CCN(c2ccc(C(F)(F)F)cn2)CC1C (stereo not drawn) [1-98] | 100% | 100%
15 | FC(F)(F)c1ccc(N2C[C@H]3CCC[C@@H](C2)[C@@H]3Oc2ccc(C(F)(F)F)cc2OCC2CC2)nc1 [7-103] | 100% | 100%
16 | CC1COC(c2cc(C(F)(F)F)ccc2OC2C3CCC2CN(c2ccc(C(F)(F)F)cn2)C3)O1 (stereo not drawn) [5-218] | 100% | 100%
17 | CCCOc1cc(C(F)(F)F)ccc1OC1CCN(c2ccc(C(F)(F)F)cn2)CC1CCC (stereo not drawn) [1-191] | 100% | 100%
18 | CCCOc1cc(C(F)(F)F)ccc1OC1CCN(c2ccc(C(F)(F)F)cn2)CC1CC (stereo not drawn) [1-186] | 100% | 100%
